Laboratory results taken from patent CN111909135A, “一种azd9291氘代物甲磺酸盐新盐型及其制备方法” (Tianjin University, priority 2020, dated 2020).

Assays:
[1] = Water solubility of the crystal form at 25℃ (Chinese Pharmacopoeia 2015, part IV); assay type: physicochemical
[2] = Crystal form stability, high temperature (60℃) and accelerated (40℃, RH75%) tests; assay type: physicochemical

C=CC(=O)Nc1cc(Nc2nccc(-c3cn(C)c4ccccc34)n2)c(OC)cc1N(C)CCN(C)C [AZD9291氘代物甲磺酸盐新盐型]
increase in solubility relative to AZD9291 deuterated compound mesylate (WO2018214886A1 and CN201810495698.7) [1]: 3 fold | crystal form transformation (XRD) ([2]; 40℃, RH75%, accelerated stability, 0, 5 and 10 days): 未发生 晶型转变 | appearance, colour and crystal form change ([2]; high temperature (60℃, humidity not limited) and accelerated (40℃, RH75%), 5 and 10 days): 外观色泽及晶 型均无变化
